Assay results from patent US11090323B2, “Pharmaceutical composition, methods for treating and uses thereof” (Boehringer Ingelheim International GmbH, priority 2013, dated 2021).

How the values were obtained:
[1] = tested on: patients with T2DM and RI; experiment: Phase III trial of empagliflozin as add-on to existing therapy in patients with T2DM and renal impairment; format: in vivo, human
Method: A Phase III trial investigated the efficacy and safety of empagliflozin (EMPA) as add-on to existing therapy for 52 weeks in patients with T2DM and RI. Patients with mild RI (eGFR [MDRD equation] ≥60 to <90 mL/min/1.73 m^2; n=290; mean age 62.6 years; mean BMI 31.5 kg/m^2) received EMPA 10 or 25 mg qd or placebo (PBO). Patients with moderate RI (eGFR ≥30 to <60 mL/min/1.73 m^2; n=374; mean age 64.9 years; mean BMI 30.2 kg/m^2) received EMPA 25 mg qd or PBO. The primary endpoint was change from baseline in HbA1c at week 24. Exploratory endpoints included changes from baseline in fasting plasma glucose (FPG), weight and blood pressure (BP) at week 24 (FIG. 1).

renal glucose absorption = experiment: PK-PD nonlinear mixed-effects model of empagliflozin exposure vs urinary glucose excretion / renal glucose threshold; format: in vivo, human
Text: Empagliflozin, a selective and potent SGLT2 inhibitor, reduces renal glucose reabsorption by lowering the renal threshold for glucose (RTG) leading to increased urinary glucose excretion (UGE) and decreased plasma glucose (PG) in patients with type 2 diabetes mellitus (T2DM). This analysis aimed to quantify the impact of empagliflozin on RTG by characterizing the relationship between empagliflozin exposure and UGE in patients with T2DM using nonlinear mixed-effects modeling.
A pharmacokinetic (PK)-pharmacodynamic (PD) model was developed using UGE, PG, PK and estimated glomerular filtration rate (eGFR) data from three Phase I/II trials (N=223; placebo, empagliflozin 1 to 100 mg once daily [QD]). The model assumed that when PG>RTG, UGE increased with increasing PG and eGFR; and when PG≤RTG slight glucose leakage into urine occurred (estimated as fraction reabsorbed [FRAC]). Reabsorption was estimated by a nonlinear function parameterized in terms of maximum reabsorbed glucose concentration (Gmax) and PG concentration to reach half maximum transport (Km). Maximum inhibitory effect (Imax) and half maximal inhibitory concentration (IC50) described inhibition of renal glucose absorption. RTG was calculated as the difference between maximum reabsorption (including drug effect) and KM. The model was evaluated via bootstrap and external predictive check of an empagliflozin renal impairment study.

[2] = tested on: patients with T2DM and CKD stage 3A, 3B and 4; experiment: Phase III trial of empagliflozin as add-on to existing therapy in patients with T2DM and CKD stage 3A, 3B and 4; format: in vivo, human; settings: EMPA 25 mg; for AEs consistent with urinary tract infection, patients / AEs consistent with volume depletion, patients / adverse events (AEs) reported, patients: 52 weeks
Method: A Phase III trial investigated the efficacy and safety of empagliflozin (EMPA) as add-on to existing therapy for 52 weeks in patients with T2DM and CKD stage 3A, 3B and 4. Patients with CKD stage 3A (eGFR [MDRD equation] ≥45 to <60 ml/min/1.73 m^2; n=180; mean [SD] age 64.5 [8.0] years; mean [SD] BMI 30.5 [5.2] kg/m^2), CKD stage 3B (eGFR ≥30 to <45 ml/min/1.73 m^2; n=194; mean [SD] age 65.2 [9.0] years; mean [SD] BMI 30.0 [5.4] kg/m^2) or CKD stage 4 (eGFR ≥15 to <30 ml/min/1.73 m^2; n=74; mean [SD] age 64.1 [11.1] years; mean [SD] BMI 30.4 [5.6] kg/m^2) received EMPA 25 mg qd or PBO for 52 weeks. In exploratory analyses, we assessed the long-term efficacy and safety of EMPA, including changes from baseline in HbA1c, fasting plasma glucose (FPG), weight and systolic and diastolic blood pressure (SBP and DBP) at week 52 (FIG. 7).

the diabetic = settings: metformin on its own; cited from earlier work

## OC[C@H]1O[C@@H](c2ccc(Cl)c(Cc3ccc(O[C@H]4CCOC4)cc3)c2)[C@H](O)[C@@H](O)[C@@H]1O [empagliflozin, 1-chloro-4-(β-D-glucopyranos-1-yl)-2-[4-((S)-tetrahydrofuran-3-yloxy)-benzyl]benzene]
[1]; EMPA 10 mg qd
  AEs consistent with genital infection, patients: 6.1%
  AEs consistent with urinary tract infection, patients: 10.2%
  Hypoglycemia (plasma glucose ≤70 mg/dL and/or requiring assistance), patients: 23.5%
[1]; EMPA 10 mg qd, week 24, all patients
  adverse events (AEs) reported, patients: 79.6%
[1]; EMPA 25 mg qd
  AEs consistent with genital infection, patients: 2.5%
  AEs consistent with urinary tract infection, patients: 9.0%
  Hypoglycemia (plasma glucose ≤70 mg/dL and/or requiring assistance), patients: 22.1%
[1]; EMPA 25 mg qd, week 24, all patients incl. exploratory severe RI group
  adverse events (AEs) reported, patients: 75.4%
[1]; Week 24, moderate A renal impairment
  difference to placebo for the adjusted mean change in HbA1c from baseline: −0.46%
[1]; Week 24, moderate B renal impairment
  difference to placebo for the adjusted mean change in HbA1c from baseline: −0.39%
[1]; patients with T2DM and mild or moderate RI
  tolerability: well tolerated
[1]; week 24, further analyses
  BP: significant reductions
  FPG: significant reductions
  weight: significant reductions
[1]; week 24, mild or moderate RI
  HbA1c vs PBO: significantly reduced
Renal glucose absorption; Homo sapiens, model parameter estimate, three Phase I/II trials, N=223, read-out: IC50, half maximal inhibitory concentration for renal glucose absorption (95% CI)
  IC50: 5.28 nM
Renal glucose absorption; dose 1 mg
  RTG (renal threshold for glucose): 100.5 mg/dL
Renal glucose absorption; dose 5 mg
  RTG (renal threshold for glucose): 43.8 mg/dL
Renal glucose absorption; dose 10 mg
  RTG (renal threshold for glucose): 33.1 mg/dL
Renal glucose absorption; dose 25 mg
  RTG (renal threshold for glucose): 26.0 mg/dL
Renal glucose absorption; model parameter estimate, three Phase I/II trials, N=223
  Imax, maximum inhibitory effect on renal glucose absorption (95% CI): 0.559 (0.545, 0.607)
[2]; CKD stage 3A
  AEs consistent with urinary tract infection, patients: 16.5%
  AEs consistent with volume depletion, patients: 4.4%
  adverse events (AEs) reported, patients: 86.8%
[2]; CKD stage 3B
  AEs consistent with urinary tract infection, patients: 16.7%
  AEs consistent with volume depletion, patients: 3.1%
  adverse events (AEs) reported, patients: 80.2%
[2]; CKD stage 4
  AEs consistent with urinary tract infection, patients: 18.9%
  AEs consistent with volume depletion, patients: 5.4%
  adverse events (AEs) reported, patients: 91.9%
[2]; week 52, CKD stage 3A
  DBP: significantly reduced
  FPG: significantly reduced
  HbA1c vs PBO: significantly reduced
  SBP: significantly reduced
  weight: significantly reduced
[2]; week 52, CKD stage 3B
  FPG: significantly reduced
  HbA1c vs PBO: significantly reduced
  weight: significantly reduced
[2]; week 52, CKD stage 4
  BP: Reductions
  FPG: Reductions
  HbA1c: did not reduce
  weight: Reductions

## CN(C)C(=N)N=C(N)N [metformin]
The diabetic
  average improvement in the HbA1c value: 1.0-1.5%
